Key:
deoxy-myoglobin = assay: Two-compartment CO-myoglobin (Mb-CO) assay; assay type: physicochemical; conditions: DMSO/PBS, 37° C., 25 minutes
[1] = Quantitative CO analysis by GC with thermal conductivity detector; assay type: physicochemical; conditions: 37° C.; for CO release yield: 4 to 1 acetonitrile: water, 1 h (FIG. 10); for CO yield, effect of pH: pH 1, pH 3 and pH 7.4 buffers in ACN:H2O (4:1), 1 hour (FIG. 11, 12)
Procedure: An Agilent […] GC System equipped with a thermal conductivity detector was used to detect and quantify CO release yield of the CO prodrugs. Using a gas tight syringe, specific volumes of the headspace of 20-mL headspace vials were sampled and transferred to the injector port maintained at 125° C. Helium was used as the carrier gas with a flow rate of 30 mL/min. Gaseous components of the headspace were separated by passing through a packed column with 60/80 Carboxen-1000 matrix support, […] (4.6 m)×1⁄8 in.×2.1 mm (Supelco). The column was heated 35° C. for 5 min then 225° C. at 20° C./min while the detector was held at 125° C.

[2] = HPLC kinetics of decomposition; assay type: physicochemical; conditions: 40% acetonitrile in PBS; 60% PBS (40% acetonitrile), 37° C.
Procedure: Compound 5 was tested for its rate of decomposition under physiological conditions. The followed samples were injected into the HPLC instrument i) saccharin (200 μM) dissolved in 40% acetonitrile in PBS; and b) incubated solution of the CO-releasing molecule Compound 5 dissolved in 40% acetonitrile in PBS at 37° C. at different time points. A 200 μL aliquot of incubated sample was placed inside a 0.5 mL vial followed by dilution with 200 μL of acetonitrile. The study was performed using the Shimadzu Prominence UFLC with a reversed-phase analytical column (Waters C18 3.5 μM, 4.6×100 mm) at 25° C. The flow rate was set at 1 mL/min. Gradient elution using acetonitrile and deionized water with 0.05% TFA was used to elute out the components of the sample. Elution conditions: 0-7 min 50% to 70% acetonitrile; injection volume 10 μL; detection wavelength of 254 and 280 nm. Experiments were done in triplicate.

[3] = test system: LPS induced TNF-α production in RAW264.7 cells; assay: Anti-inflammatory assay: TNF-α ELISA in LPS-stimulated RAW264.7 cell culture; assay type: cell-based; conditions: total 5 hour pretreatment (Compound 5 medium changed every 1 hour 5 times; Compound 7 single addition)
Procedure: The effect of the compounds of the present invention on CO-associated anti-inflammation activity was studied. Pro-inflammatory cytokine TNF-α in RAW264.7 cell culture upon stimulation by lipid polysaccharide (LPS) from E. coli was tested with ELSA assay. […] Due to the fast release kinetics of Compound 5, a repeated dosage protocol was used. Indicated concentration of Compound 5 was added to the culture medium right before addition to the cell and the fresh-made drug loaded culture medium was changed every 1 hour 5 times. Compound 7 has a longer half-life and therefore a single addition of the drug can fulfill the anti-inflammation effect. A Total 5 hour pretreatment was used throughout the experiments and the reported CO prodrug shown below (Ji, X., et al. Angew Chem Int Ed Engl 2016, 55 (51), 15846-15851) was used as the positive control: […]

[4] = NMR CO release experiments for formyl compounds; assay type: physicochemical; conditions: deuterated PBS or 20% DMSO-d6 in deuterated PBS; determined indirectly from ratio of formic acid formed
Procedure: Compounds 1-4 were tested for their CO release by NMR. Each compound was placed in deuterated PBS or 20% DMSO-d6 in deuterated PBS. CO release yield was indirectly determined by calculating the ratio of formic acid formed as a by-product of the competing hydrolysis reaction.

[5] = pKa of the conjugate acid of the leaving group; no measurement described; cited from earlier work
[6] = COP-1 fluorescent probe evaluation of CO release; assay type: physicochemical
Procedure: COP-1, a CO probe that is commonly employed in the literature to detect CO was used to evaluate the ability of different oxalyl-based compounds to release CO under aqueous solution at room temperature. Chloride was replaced with various leaving groups having different pKa values to survey the effect of pKa on CO release.
To a solution of the CO probe COP-1 (0.5 μM) in 3% DMSO in PBS, a solution of 1,2-bis(1,1-dioxido-3-oxobenzo[d]isothiazol-2(3H)-yl)ethane-1,2-dione in DMSO was added to form a 100 μM final solution concentration. The resulting mixture was incubated at 37° C., and the fluorescence emission intensity was recorded at different time points from […] with an excitation wavelength of 475 nm.

[7] = LC-MS determination of oxalic acid (CO vs non-CO producing pathways); assay type: physicochemical; conditions: from a 200-μM sample
Procedure: LC-MS Studies: CO Production Vs Non-CO Producing Pathways The LCMS analysis was performed on an Agilent 1200 HPLC and 3200 API triple quadrupole mass spectrometer with electrospray ionization source in a negative mode. Selected ion mode was used for the detection of ions at m/z 182 for saccharin and m/z 89 for oxalic acid. A 5 uL of sample solution (compound 5) was directly delivered to the mass spectrometer ionization source with an Agilent autosampler and HPLC by mixing with 1% ACN in water mobile phase at 200 uL/min flow rate. No column was used. Three minutes were recorded and the peak area was integrated and the peak are ratio of PA (Oxalic acid)/PA(Saccharin) vs Concentration ratio (C(Saccharine)/C(Oxalic acid) was plotted as standard curve. The linear regression equation was generated for the calculation of the ratio of unknowns.

HeLa cells = assay: CCK-8 cytotoxicity assay; assay type: cell-based; conditions: 0-100 μM, 1% DMSO in DMEM, 24 hours
Procedure: For the CCK-8 assay, HeLa cells were cultured in DMEM (Dulbecco's Modified Eagle's Medium) supplements with 10% fetal bovine serum (MidSci; SO1520HI) and 1% penicillin-streptomycin (Sigma-Aldrich; P4333) at 37° C. with 5% C02. Fresh medium was replenished every other day. The cells were treated with the compounds (0-100 μM) using 1% DMSO in DMEM for 24 hours.

[8] = RP-HPLC stability study (solid and acetonitrile solution); assay type: physicochemical; conditions: exposed to ambient light and temperature
Text: These prodrugs are also stable as a solution of acetonitrile stored at room temperature for at least seven days.

[9] = Saturation adsorption assay on activated charcoal; assay type: physicochemical; conditions: in 10 mg activated charcoal, ACN, 25° C.
Procedure: A saturation adsorption assay was used to determine the adsorption capacity of the Compound 5 on activated charcoal. Compound 5 was dissolved in anhydrous ACN to form calibration samples with a concentration range from 0.019 to 0.3 mg/ml. The absorbance at 280 nm was measured with a UV-Vis spectrometer and plotted against the concentration to give the calibration curve (FIG. 21).
At room temperature (25° C.), 1-6 mg Compound 5 was mixed with 10 mg of activated charcoal and then 0.5 ml ACN was added. The mixture was shaken for 1 h followed by centrifuging at 12000×g for 5 min and the supernatant was diluted by 50 folds with ACN and measured with UV/Vis spectrometer at 280 nm to get the Compound 5 concentration in the supernatant. Adsorbed mass of Compound 5 was calculated by Formula I: Adsorbed mass=(Initial mass)−0.5*(supernatant concentration) (Formula I) Adsorbed mass=Y0+(Plateau-Y0)*(1−e^kX) (Formula II)

[10] = CO release profile of the activated charcoal formulation (GC headspace); assay type: physicochemical; conditions: 100 mg method A formulation, 3 mL PBS, 37° C.
Procedure: Activated charcoal comprising Compound 5 (100 mg) that was formulated by method A was put into a GC-headspace vial. PBS (3 mL) preheated to 37° C. was added and the vial was sealed and incubated at 37° C. At different time points, 250 μL of the headspace gas was withdrawn and injected to a gas chromatograph (Agilent 7820) equipped with a RESTEK packed molecular sieve column and a TCD detector. The CO release kinetic and yield were plotted (FIG. 23) based on the CO peak area and calibration curve.

Which “formation of CO-myoglobin (UV-Vis spectral signature)” value (deoxy-myoglobin) does the source give for `CC1=CC(=O)N(C(=O)C(=O)N2C(=O)C=C(C)OS2(=O)=O)S(=O)(=O)O1` [Compound 7, 1,2-Bis(6-methyl-2,2-dioxido-4-oxo-1,2,3-oxathiazin-3(4H)-yl)ethane-1,2-dione] here?
Its value is “showed the characteristic spectral signature for the formation of CO-myoglobin”.

And the CO release yield [1]?
The CO release yield was 92%±3.

And the “CO yield, effect of pH” value [1]?
The value was “around 90%”.

What about the half-life [2] of the same molecule?
Its half-life is 9.5 ± 0.1 min.

What about the “LPS induced TNF-α production” value [3] of the same molecule?
Its value is “inhibit LPS induced TNF-α production in a dose-dependent manner”.

Which “CO Release Yield (%)” value [4] does the source give for `O=CN1C(=O)c2ccccc2S1(=O)=O` [Compound 1, 3-Oxobenzo[d]isothiazole-2(3H)-carbaldehyde 1,1-dioxide] here?
Its value is 20%.

With `O=C(C(=O)N1C(=O)c2ccccc2S1(=O)=O)N1C(=O)c2ccccc2S1(=O)=O` [drawing 150] as the molecule, how does the pKa [5] read?
Its pKa is 1.6.

For `CS(=O)(=O)N(C(=O)C(=O)N(C(=O)c1ccccc1)S(C)(=O)=O)C(=O)c1ccccc1` [Compound 9, N^1,N^2-Dibenzoyl-N^1,N^2-bis(methylsulfonyl)oxalamide], which CO release yield [1] is on record?
The CO release yield was “no CO was detected”.

With `C[N+](C)=c1ccn(C=O)cc1.[Br-]` [Compound 4, N-(1-Formylpyridin-4(1H)-ylidene)-N-methylmethanaminium Bromide] as the molecule, how does the “CO Release Yield (%)” value [4] read?
Its value is 34%.

Which results are given for `Cc1nn(C=O)c(=S)s1` [Compound 2, 5-Methyl-2-thioxo-1,3,4-thiadiazole-3(2H)-carbaldehyde]?
increase in fluorescence with the COP-1 probe ([6]; after 10 minutes of incubation (FIG. 4)): 2.3 fold; formation of CO-myoglobin (UV-Vis spectral signature) (deoxy-myoglobin): showed the characteristic spectral signature for the formation of CO-myoglobin; CO Release Yield (%) [4]: 33%

For `O=Cn1ccccc1=O` [Compound 3, 2-Oxopyridine-1(2H)-carbaldehyde], which “CO Release Yield (%)” value [4] is on record?
Its value is 20%.

Which pKa [5] does the source give for `O=C(C(=O)N1C(=O)c2ccccc2C1=O)N1C(=O)c2ccccc2C1=O` here?
Its pKa is 8.3.

Which “increase in fluorescence intensity with the COP-1 probe” value ([6]; after 3 h (FIG. 5), 100 μM compound, 0.5 μM COP-1, 3% DMSO in PBS, 37° C.) does the source give for `O=C(C(=O)N1C(=O)c2ccccc2S1(=O)=O)N1C(=O)c2ccccc2S1(=O)=O` [Compound 5, 1,2-Bis(1,1-dioxido-3-oxobenzo[d]isothiazol-2(3H)-yl)ethane-1,2-dione] here?
The value was 4 fold.

What about the “formation of CO-myoglobin (UV-Vis spectral signature)” value (deoxy-myoglobin) of the same molecule?
Its value is “showed the characteristic spectral signature for the formation of CO-myoglobin”.

And the CO release yield [1]?
The CO release yield was 76%±6.

And the “CO yield, effect of pH” value [1]?
The value was 60% to 30%.

What about the “CO production estimated from oxalic acid” value [7] of the same molecule?
The value was “about 75%”.

And the oxalic acid produced [7]?
The oxalic acid produced was 47 µM.

And the half-life [2]?
Its half-life is 1.28 ± 0.03 min.

What about the “LPS induced TNF-α production” value [3] of the same molecule?
Its value is “inhibit LPS induced TNF-α production in a dose-dependent manner”.

And the “toxicity to HeLa cells (cell survival)” value (HeLa cells)?
Its value is “no toxicity to HeLa cells up to a 100 μM concentration”.

What about the “stable as a solid” value [8] of the same molecule?
Its value is “at least 24 days”.

What about the “maximum adsorption amount on activated charcoal (plateau)” value [9] of the same molecule?
The value was 1.73 mg.

What about the “total CO release yield” value [10] of the same molecule?
Its value is 81%.

With `O=C(C(=O)n1ccnc1)n1ccnc1` as the molecule, how does the pKa [5] read?
Its pKa is 14.5.

Which pKa [5] does the source give for `O=C(Oc1c(Cl)cc(Cl)cc1Cl)C(=O)Oc1c(Cl)cc(Cl)cc1Cl` here?
The pKa was 6.23.

With `CC(C)(C)OC(=O)C(=O)N1C(=O)c2ccccc2S1(=O)=O` [Compound 8, tert-Butyl 2-(1,1-Dioxido-3-oxobenzo[d]isothiazol-2(3H)-yl)-2-oxoacetate] as the molecule, how does the CO release yield [1] read?
Its CO release yield is “No CO nor CO2 were detected”.

And the CO2 yield ([1]; ACN:H2O (4:1), 1 hour (FIG. 10))?
The CO2 yield was “No CO nor CO2 were detected”.

— patent US12071415B2, “Carbon monoxide prodrugs for the treatment of medical disorders” (Georgia State University Research Foundation, Inc., priority 2018, dated 2024)
